Measured values from patent EP0305646B1, “3-Hydroxypyrid-4-ones and pharmaceutical compositions” (BRITISH TECHNOLOGY GROUP LIMITED, priority 1983, dated 1984).
Read-outs that look alike come from different tables or passages of the source.

Assays:
[1] = target: T1, Horse spleen ferritin (Equus caballus, UniProt P02791+Q8MIP0); test: Mobilisation of iron from ferritin (dialysis against a pyridone solution); type: biochemical; settings: ferritin 10^-6 M, pH 7.4, 3 x 10^-3 M pyridone
T1 construct: Horse spleen ferritin (Sigma) was used without further purification; purchased Sigma; host or cells: horse spleen (tissue-derived)
T1 sequence (P02791 2-175 limits assumed): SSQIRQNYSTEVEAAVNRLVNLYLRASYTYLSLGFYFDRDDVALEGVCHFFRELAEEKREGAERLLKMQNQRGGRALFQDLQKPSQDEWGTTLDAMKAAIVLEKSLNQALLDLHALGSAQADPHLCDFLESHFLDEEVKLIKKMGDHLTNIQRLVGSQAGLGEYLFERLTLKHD
T1 sequence (Q8MIP0 whole entry): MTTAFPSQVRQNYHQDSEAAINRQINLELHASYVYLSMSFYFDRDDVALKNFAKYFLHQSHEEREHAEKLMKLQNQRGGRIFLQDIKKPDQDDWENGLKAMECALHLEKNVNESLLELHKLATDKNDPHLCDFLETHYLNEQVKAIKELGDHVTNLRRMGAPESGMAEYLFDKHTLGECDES
Method: Horse spleen ferritin (Sigma) was used without further purification and its iron content was estimated spectrophotometrically at 420 nm. The ferritin solution in phosphate buffered saline (Dulbecco-OXOID, 10^-6 M, pH 7.4) was enclosed in a Visking dialysis tube and dialysed against a 3 x 10^-3 M buffered solution of one of various pyridones as indicated in Table 2. The absorption spectrum of the resulting iron (III) complex in the dialysis solution was recorded after 6 and 24 hours. For comparative purposes, the procedure was repeated using a blank control.
The results are shown in Table 2 where the percentage of ferritin-bound iron removed by the compound under test is shown. For comparative purposes, results reported in the literature for similar tests with 1 x 10^-3 M desferrioxamine (Crichton et al., J. Inorganic Biochem., 1980, 13, 305) and with 6 x 10^-3 M LICAMS (Tufano et al., Biochem. Biophys. Acta, 1981, 668, 420) are also given in the Table. It will be seen that the pyridone compounds are able to remove iron effectively from ferritin in contrast with desferrioxamine and LICAMS (although the latter will remove iron in the presence of ascorbic acid such a mixture is very difficult to manage clinically). […]

[2] = target: T2, Human transferrin (Homo sapiens, UniProt P02787); test: Mobilisation of iron from 59Fe-loaded transferrin; type: biochemical; settings: 59Fe transferrin 10^-5 M, compound 4 x 10^-3 M in tris HCl (0.1 M, pH 7.4); for Percentage of iron removed 4 hours: incubation 4 hours; for Percentage of iron removed 18 hours: incubation 18 hours
T2 construct: purchased Sigma
T2 sequence (P02787 20-698): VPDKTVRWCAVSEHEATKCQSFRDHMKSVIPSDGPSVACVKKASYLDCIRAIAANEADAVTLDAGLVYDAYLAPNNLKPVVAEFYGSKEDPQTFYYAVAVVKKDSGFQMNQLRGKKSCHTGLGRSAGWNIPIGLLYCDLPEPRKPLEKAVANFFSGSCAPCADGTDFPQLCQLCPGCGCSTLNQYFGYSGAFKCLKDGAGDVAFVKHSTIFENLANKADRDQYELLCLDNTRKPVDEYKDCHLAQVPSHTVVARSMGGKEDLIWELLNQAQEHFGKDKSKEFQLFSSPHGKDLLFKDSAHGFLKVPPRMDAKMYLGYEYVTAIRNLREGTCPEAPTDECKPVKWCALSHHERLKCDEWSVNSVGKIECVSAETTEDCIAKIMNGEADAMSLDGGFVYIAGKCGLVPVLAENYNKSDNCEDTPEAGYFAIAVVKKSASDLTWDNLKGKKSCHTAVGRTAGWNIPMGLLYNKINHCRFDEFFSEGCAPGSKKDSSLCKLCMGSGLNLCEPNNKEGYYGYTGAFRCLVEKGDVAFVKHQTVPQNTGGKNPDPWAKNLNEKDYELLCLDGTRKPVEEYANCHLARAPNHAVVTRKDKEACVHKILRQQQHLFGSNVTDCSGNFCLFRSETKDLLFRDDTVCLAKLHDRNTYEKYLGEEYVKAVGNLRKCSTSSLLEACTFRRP
Method: Human transferrin (Sigma) was loaded with iron (III) by the method of Bates and Schlaback. J. Biol. Chem. (1973) 248, 3228. ^59Iron (III) transferrin (10^-5 M) was incubated with a 4 x 10^-3 M solution in tris HCl (0.1 M, pH 7.4) of one of various pyridones as indicated in Table 3 for periods of 4 hours and 18 hours. The solution was then dialysed against phosphate buffered saline for 24 hours. The ^59Fe remaining in the dialysis tube was then recorded. For comparative purposes, this procedure was repeated with desferrioxamine using incubation for both 4 hours and 18 hours and with EDTA using incubation for 4 hours only.
The results are shown in Table 3 in terms of the percentage of transferrin bound iron removed by the compound under test. It will be seen that the pyrid-4-one compounds are very effective at iron removal, as compared with desferrioxamine or EDTA, after only 4 hours.

[3] = Partition coefficient Kpart between n-octanol and aqueous tris hydrochloride, by spectrophotometry; settings: n-octanol / tris hcl, pH 7.4
Method: The partition coefficient Kpart being the ratio (concentration of compound in n-octanol)/)concentration of compound in aqueous phase) on partition between n-octanol and aqueous tris hydrochloride (20 mM, pH 7.4), is measured by spectrophotometry at 20°C for various of the compounds of the previous Examples and for their 3:1 iron(III) complexes at (10^-4M by spectrophotometry. The solutions of the complexes are either produced by dissolving the pre-formed complex in the aqueous tris hydrochloride or are prepared in situ in the buffer by the admixture of a 3:1 molar ratio of the pyridone and ferric chloride, the pH thereafter being readjusted to 7.4 if necessary (the same product will be obtained in the buffer solution irrespective of whether the pyridone used is in a salt form or not). Acid washed glassware is used throughout and, following mixing of 5 ml of the 10^-4M aqueous solution with 5 ml n-octanol for 1 minute, the aqueous n-octanol mixture is centrifuged at 1,000 g for 30 seconds. The two resulting phases are separated for a concentration determination by spectrophotometry on each. For the free hydroxypyridones, the range 220-240 nm is used for concentration determinations whilst for the iron complexes, the range 340-360 nm is used.

[4] = Affinity for iron (III) expressed as log Ksol; type: physicochemical; settings: > 6.0 needed to remove iron from transferrin
Description: In order to solubilise iron (III) hydroxide, log Ksol must be greater than 0 and in order to remove iron from transferrin, log Ksol should be in excess of 6.0. The log Ksol values for 1,2-dimethyl-3-hydroxypyrid-4-one, by way of example, is 9.5, thus comparing favourably with those of the bidentate hydroxamates at about 4.0, of catechols at about 8.0, of desferrioxamine at 6.0, and of diethylenetriamine penta-acetic acid (DTPA) at 2.0. Moreover, the ability of the compounds to remove iron efficiently has been confirmed both by in vitro test and also by in vivo tests in mice. It is particularly significant that these latter tests are successful whether the compound is given intraperitoneally or orally by stomach tube, the compounds generally either being stable under acidic conditions or being converted thereby to acid stable active compounds.

[5] = system: Mice; test: In vivo iron binding capacity: excretion of 59Fe in iron dextran loaded mice; settings: 10 mg per mouse, control = 100%
Method: Mice were injected intraperitoneally with iron dextran (2 mg) at weekly intervals over a four week period. Two weeks after the final injection, the mice were injected via the tail vein with ^59Fe lactoferrin (human lactoferrin, 1 mg per injection 2 µCi). The mice were then caged individually. After a ten day period, 1-acetyl-3-hydroxypyrid-2-one was administered to groups of 8 mice at 10 mg per mouse either intraperitoneally or intragastrically (in each case 3 of the mice received only one dose whilst 5 received 2 doses at a 24 hour interval). The excretion of iron was recorded at either 12 or 24 hourly intervals over a three day period before and a two day period after administration of the compound. For comparative purposes, the procedure was repeated with a blank control and with desferrioxamine, also at 10 mg per mouse (the intraperitoneally treated mice receiving one dose of desferrioxamine and the intragastrically treated mice two doses at a 24 hour interval).
The results are shown in Table 4, being given on the basis of the control representing 100% excretion, and illustrate the particular advantage of the pyridones as compared with desferrioxamine for oral administration the levels of iron excreted on intragastric administration being higher for all the pyridones tested than for desferroxamine. […] However, this is not the case here, the large SD values being a consequence of the large range among the positive responses.

[6] = target: T1, Horse spleen ferritin; settings: cited from earlier work

SMILES	Percentage of iron removed 6 hours [1]	Percentage of iron removed 24 hours [1]	Percentage of iron removed 4 hours [2]	Percentage of iron removed 18 hours [2]	log Ksol [4]	Excretion of ^59Fe±SD percent ([5]; Intraperitoneal Administration)	also measured
COC(=O)CCn1ccc(=O)c(O)c1C [3-hydroxy-1-(2'-methoxycarbonylethyl)-2-methylpyrid-4-one]	22%	45%	–	–	–	–	–
Cn1cc(O)c(=O)cc1CO [3-hydroxy-6-hydroxymethyl-1-methylpyrid-4-one]	25%	49%	93%	97%	–	–	logD [3]: -1.52
O=C(O)CN(CCN(CC(=O)O)CC(=O)O)CC(=O)O [EDTA, ethylenediamine tetra-acetic acid, reference compound]	–	–	27%	67%	–	–	–
O=C(O)CN(CCN(CC(=O)O)CC(=O)O)CCN(CC(=O)O)CC(=O)O [DTPA, diethylenetriamine penta-acetic acid]	–	–	–	–	2.0	–	–
Cc1c(O)c(=O)ccn1CCCCCO [3-hydroxy-1-(5'-hydroxypentyl)-2-methylpyrid-4-one]	–	–	–	–	–	149 ± 59%	Excretion of ^59Fe±SD percent ([5]; Intragastric Administration): 111 ± 22%
O=C(NCCCCN(CCCNC(=O)c1cc(S(=O)(=O)O)cc(O)c1O)C(=O)c1cc(S(=O)(=O)O)cc(O)c1O)c1cc(S(=O)(=O)O)cc(O)c1O [LICAMS]	–	–	–	–	–	–	Percentage of iron removed 6 hours ([6]; 6 mM LICAMS + 12 mM ascorbic acid, literature (Tufano et al.)): 7%; Percentage of iron removed 6 hours ([6]; 6 mM LICAMS, literature (Tufano et al.)): 0%
Cc1c(O)c(=O)ccn1C [1,2-dimethyl-3-hydroxypyrid-4-one]	–	–	–	–	9.5	–	–
CC(=O)N(O)CCCCCNC(=O)CCC(=O)N(O)CCCCCNC(=O)CCC(=O)N(O)CCCCCN [Desferrioxamine, reference compound]	–	–	17%	22%	6.0	414 ± 100%	Excretion of ^59Fe±SD percent ([5]; Intragastric Administration): 88 ± 17%; Percentage of iron removed 6 hours ([6]; 1 mM desferrioxamine, literature (Crichton et al.)): 1.5%
Cc1c(O)c(=O)ccn1CCO [3-hydroxy-1-(2'-hydroxyethyl)-2-methylpyrid-4-one]	31%	49%	94%	96%	–	170 ± 49%	–
